Measured values taken from ChEMBL document CHEMBL5247684, “Novel C-Linked Isoquinoline Amides as LRRK2 Inhibitors for Treating Parkinson's Disease” (ACS Med Chem Lett, 2023).

Molecular target: Leucine-rich repeat serine/threonine-protein kinase 2 (Homo sapiens, UniProt Q5S007, G2019S)
Assay: Inhibition of GST20-tagged truncated human LRRK2 G2019S mutant using fluorescein labeled LRRKtide peptide as substrate by Lantha screen assay

Chain of Leucine-rich repeat serine/threonine-protein kinase 2 (Q5S007 whole entry G2019S, the tested form may be a part): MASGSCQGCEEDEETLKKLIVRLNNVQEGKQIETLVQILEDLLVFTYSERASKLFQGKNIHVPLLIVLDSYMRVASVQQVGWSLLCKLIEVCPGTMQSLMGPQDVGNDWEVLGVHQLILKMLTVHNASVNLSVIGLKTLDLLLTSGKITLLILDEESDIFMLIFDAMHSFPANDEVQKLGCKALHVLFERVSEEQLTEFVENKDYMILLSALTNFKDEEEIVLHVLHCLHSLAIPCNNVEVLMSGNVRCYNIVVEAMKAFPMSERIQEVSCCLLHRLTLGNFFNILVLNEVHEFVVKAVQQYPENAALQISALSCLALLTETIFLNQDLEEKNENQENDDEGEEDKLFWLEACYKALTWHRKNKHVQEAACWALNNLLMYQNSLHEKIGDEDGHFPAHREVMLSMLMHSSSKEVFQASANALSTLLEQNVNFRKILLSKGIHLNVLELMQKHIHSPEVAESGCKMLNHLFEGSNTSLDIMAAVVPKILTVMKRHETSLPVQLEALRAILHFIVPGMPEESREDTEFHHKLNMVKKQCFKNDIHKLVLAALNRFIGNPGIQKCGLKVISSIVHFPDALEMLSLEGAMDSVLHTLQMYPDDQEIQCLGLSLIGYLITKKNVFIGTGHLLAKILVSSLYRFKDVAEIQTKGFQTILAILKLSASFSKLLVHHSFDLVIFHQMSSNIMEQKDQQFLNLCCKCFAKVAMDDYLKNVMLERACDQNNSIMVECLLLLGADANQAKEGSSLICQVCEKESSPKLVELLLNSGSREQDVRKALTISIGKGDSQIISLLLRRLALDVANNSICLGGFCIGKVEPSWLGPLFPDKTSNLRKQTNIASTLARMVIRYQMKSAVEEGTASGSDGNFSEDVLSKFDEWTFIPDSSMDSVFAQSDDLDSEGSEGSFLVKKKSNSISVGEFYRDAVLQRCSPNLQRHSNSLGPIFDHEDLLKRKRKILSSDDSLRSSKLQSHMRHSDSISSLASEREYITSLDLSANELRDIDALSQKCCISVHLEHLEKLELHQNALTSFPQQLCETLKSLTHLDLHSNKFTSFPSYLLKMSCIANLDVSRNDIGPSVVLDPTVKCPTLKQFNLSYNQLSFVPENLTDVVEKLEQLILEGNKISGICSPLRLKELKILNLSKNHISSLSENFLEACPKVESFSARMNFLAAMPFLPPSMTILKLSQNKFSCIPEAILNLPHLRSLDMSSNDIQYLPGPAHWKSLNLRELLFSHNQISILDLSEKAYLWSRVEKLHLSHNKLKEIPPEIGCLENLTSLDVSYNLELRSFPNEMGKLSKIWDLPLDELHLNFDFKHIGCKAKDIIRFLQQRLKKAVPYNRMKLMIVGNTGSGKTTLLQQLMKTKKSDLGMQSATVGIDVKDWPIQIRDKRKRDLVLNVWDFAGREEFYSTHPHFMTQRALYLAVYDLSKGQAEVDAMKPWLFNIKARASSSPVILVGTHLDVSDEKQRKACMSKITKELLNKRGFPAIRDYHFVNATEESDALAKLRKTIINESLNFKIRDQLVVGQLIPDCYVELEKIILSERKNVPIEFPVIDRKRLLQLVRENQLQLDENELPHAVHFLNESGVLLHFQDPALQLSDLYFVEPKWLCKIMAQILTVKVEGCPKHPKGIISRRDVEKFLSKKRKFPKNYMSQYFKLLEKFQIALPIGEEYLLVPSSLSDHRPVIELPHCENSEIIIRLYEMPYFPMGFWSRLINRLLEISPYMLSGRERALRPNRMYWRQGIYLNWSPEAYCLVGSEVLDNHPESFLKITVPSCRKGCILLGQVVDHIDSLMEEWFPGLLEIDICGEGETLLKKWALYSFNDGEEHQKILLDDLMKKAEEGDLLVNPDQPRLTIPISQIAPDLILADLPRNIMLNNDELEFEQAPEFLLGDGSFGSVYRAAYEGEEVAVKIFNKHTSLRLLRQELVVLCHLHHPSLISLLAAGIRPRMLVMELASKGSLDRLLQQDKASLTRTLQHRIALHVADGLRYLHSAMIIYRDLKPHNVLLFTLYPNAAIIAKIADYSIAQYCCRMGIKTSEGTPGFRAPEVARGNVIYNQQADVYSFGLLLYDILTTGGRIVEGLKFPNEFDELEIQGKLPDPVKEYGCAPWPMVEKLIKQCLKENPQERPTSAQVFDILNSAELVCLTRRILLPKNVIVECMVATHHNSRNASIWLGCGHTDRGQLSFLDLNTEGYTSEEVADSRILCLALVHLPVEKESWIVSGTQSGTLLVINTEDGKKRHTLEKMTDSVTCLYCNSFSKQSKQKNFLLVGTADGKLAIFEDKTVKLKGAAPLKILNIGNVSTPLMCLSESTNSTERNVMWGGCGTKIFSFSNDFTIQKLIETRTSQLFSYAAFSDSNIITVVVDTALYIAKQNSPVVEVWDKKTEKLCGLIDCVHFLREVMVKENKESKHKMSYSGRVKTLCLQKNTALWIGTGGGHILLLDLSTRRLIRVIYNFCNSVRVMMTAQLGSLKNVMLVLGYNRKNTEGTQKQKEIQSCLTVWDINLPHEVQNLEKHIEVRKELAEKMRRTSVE

C[C@@]1(N2CC[C@@H](c3cc4cc(NC(=O)C5CC56CC6)ncc4cc3Cl)[C@H](F)C2)COC[C@@H]1O (stereo partly specified)
IC50: 0.0813 nM
